# Results published in patent publication US5128051A, “Method for the control of biofouling” (Union Carbide Chemicals & Plastics Technology Corporation, priority 1991, dated 1992).
# Where two headings read alike, the source gives them in different places.
# Legend:
# [1] = tested on: Aerobic Bacterial Biofilms (oil field isolate); experiment: Log reduction of sessile aerobic bacteria in biofilm on stainless steel penicylinders (Example 1, Procedure A); assay type: cell-based, predominantly Pseudomonas species; conditions: for log reduction at 10 ppm / log reduction at 25 ppm / log reduction at 50 ppm / log reduction at 250 ppm / log reduction at 500 ppm / log reduction at 1000 ppm / log reduction at 5 ppm: Pseudomonas; for log reduction at 10 ppm / log reduction at 25 ppm / log reduction at 50 ppm / log reduction at 5 ppm: 5.1 represents complete kill
# Description: (§1) Approximately 20 ml of sterile Bacto TGE broth (Difco Labs) were placed in a sterile Petri dish (15×100 mm). To this media, 10 ml of a 24 hour culture of the aerobic organisms to be tested were added. Sterile, stainless steel penicylinders (10 mm O.D., 7 mm I.D., 10 mm long) were then placed in the inoculated media. The cylinders were placed in the dish either on-end or on-side. The Petri dish containing the cylinders was then incubated at 37° C. for 48 hours. At that time, cylinders were individually removed aseptically using forceps, blotted on sterile filter paper, and washed three times by dipping in sterile saline solution. This procedure was used to ensure that only organisms that were firmly attached in the biofilm were tested.
# (§2) Two biofilm-coated cylinders were then carefully dropped into separate 10 ml test tubes containing biocide solutions of varying concentrations. After one hour and four hour contact times, a cylinder was aseptically transferred to a fresh tube of TGE broth and vortexed for 30 seconds to remove all sessile organisms. The resulting broth suspension was then serially diluted and plated using TGE agar for enumeration. Plates were incubated for 48 hours at 37° C. before counting.
# (§3) To minimize error, all biocide concentration/contact time points reported below were tested in duplicate and the results averaged. Results are reported as log reduction of microorganisms compared to control cylinders treated in the same manner except that no biocide was employed.
# An oil field isolate of aerobic bacteria was utilized in all aerobic biofilm experiments. This culture was taken from a water-flooded oil well in Texas and was tentatively identified as containing predominantly Pseudomonas species. The biofilms were developed following above Procedure A. Respective samples were treated with various concentrations of the biocides listed below and the number of bacteria were counted after one hour and four hours of contact.
# biofilm deposits = conditions: dynamic laboratory reactors, waterflood pipeline conditions; Eagar et al.; cited from earlier work
# [2] = tested on: Sessile Anaerobic Bacterial Biofilms (SRB); experiment: Log reduction of sessile sulfate-reducing bacteria in biofilm on mild steel penicylinders (Example 3, Procedure B); assay type: cell-based; conditions: for log reduction at 100 ppm / log reduction at 250 ppm / log reduction at 10 ppm / log reduction at 25 ppm / log reduction at 50 ppm: 4 represents complete kill; for concentration required to achieve the same level of effectiveness as OPA: SRB biofilm, compared with OPA 10 ppm, 4 hours
# Description: SRB-containing media were prepared as follows:
# 14.5 g of Bacto Sulfate API Broth (Difco Labs) and 2.0 g Bacto Agar (Difco Labs) were added to 1000 ml distilled water. The solution was heated and stirred until all components were dissolved. A 1% solution of sodium thioglycollate in distilled water was also prepared. Both solutions were then autoclaved at 121° C. for 30 minutes. After cooling, 5 g of the sodium thioglycollate solution was added to the media mixture.
# Mild steel penicylinders (10 mm O.D., 7 mm I.D., 10 mm long) were cleaned by soaking for 10 minutes in 0.5% hydrochloric acid. Cylinders were then rinsed three times with distilled water and dried before use.
# A 4 oz screw-capped bottle was purged with argon to remove oxygen, capped and then autoclaved. After cooling, 100 ml of sterile SRB media was added to this bottle. Cleaned penicylinders were then added along with 10 ml of a five day old SRB culture. All operations were conducted under a constant stream of argon to minimize oxygen levels. The bottle was then incubated for 7-14 days (depending on the SRB used) at 37° C. At that time, cylinders were individually removed aseptically using forceps and blotted on sterile filter paper.
# Two biofilm-coated cylinders were then carefully dropped into separate 10 ml test tubes of deaerated biocide solutions of varying concentrations. All of the biocide and control solutions contained 30 ppm of a non-ionic nonyl phenol ethoxylate surfactant (TERGITOL® NP-4, Union Carbide Chemicals and Plastics Company Inc., Danbury, CT). After one hour and four hour contact times, a cylinder was removed, blotted on sterile filter paper, and placed into a commercially available SRB vial (C&S Laboratories, Tulsa, OK). The vial was then sonicated (Bransonic Model 12) for 30 seconds to remove sessile organisms. The resulting solution was serially diluted into additional SRB vials for enumeration. Vials were grown for 28 days at 37° C. before reading. Blackening of the vials was used as an indication of growth.
# as §3
# A SRB culture was obtained from a water-flooded oil well in Alaska. The bacteria were then cultivated on the walls of the steel penicylinders using Procedure B described above. Respective samples were then contacted with glutaraldehyde, formaldehyde or OPA for one and four hours with the following results: […]
# K. pneum. = conditions: planktonic; cited from earlier work
# C. albic. = conditions: planktonic; cited from earlier work
# [3] = tested on: Aerobic Bacterial Biofilms; experiment: Log reduction of sessile microorganisms in aerobic biofilm (Example 2, Procedure A); assay type: cell-based, predominantly Pseudomonas species; conditions: for log reduction at 50 ppm / log reduction at 100 ppm / log reduction at 200 ppm: Pseudomonas, 7.4 represents complete kill
# Description: as §1, §2, §3
# Respective samples of the five compounds were tested against the sessile microorganisms embedded in biofilms. The biofilm was comprised of a variety of microorganisms, but contained predominantly Pseudomonas species cultivated using Procedure A. The number of organisms were counted after one hour and four hours of contact.
# S. aureus = conditions: planktonic; cited from earlier work
# P. vulg. = conditions: planktonic; cited from earlier work
# P. aerug. = conditions: planktonic; cited from earlier work
# sessile microorganisms = conditions: Pope et al.; cited from earlier work
# [4] = tested on: Planktonic Anaerobic Bacteria (SRB); experiment: Log reduction of planktonic sulfate-reducing bacteria (Example 4, Procedure C); assay type: cell-based
# Description: A stock culture of the SRB to be tested was grown in a commercial SRB vial for 4 days at 37° C. The vial was then purged for approximately 30 seconds with argon to remove excess hydrogen sulfide. At that time a series of SRB vials were each inoculated with 0.1 ml of this stock culture. These vials were then incubated at 37° C. for 4 days. Each of these vials was then purged with argon. Appropriate stock solutions of biocide were prepared so that additions of 0.1-1.0 ml provided the desired concentration of biocide in each SRB vial. After 1 hour and 4 hour contact times, 1 ml aliquots were removed from each vial and were injected into fresh SRB vials. These vials were then serially diluted for enumeration.
# as §3
# The same sample of planktonic SRB as used in Example 3 was cultivated following above Procedure C. Respective samples of bacteria were treated with varying concentrations of OPA and the log reduction in the number of bacteria was recorded in each case.
# Solubility in water = assay type: physicochemical; conditions: 25° C., read-out: limit of solubility in water
# [5] = 1 hr contact, read-out: log reduction after 1 hr
# [6] = 4 hr contact, read-out: log reduction after 4 hr
# [7] = 1 h, read-out: log reduction after 1 hr
# [8] = 4 h, read-out: log reduction after 4 hr
structure (smiles),measurement,setting,value
"O=CCCCC=O [GA, glutaraldehyde]",log reduction at 10 ppm,[1]; [5],0.1
same,log reduction at 10 ppm,[1]; [6],0.7
same,log reduction at 25 ppm,[1]; [5],0.3
same,log reduction at 25 ppm,[1]; [6],1.7
same,log reduction at 50 ppm,[1]; [5],5.1
same,log reduction at 50 ppm,[1]; [6],5.1
same,removing biofilm deposits and controlling number of viable organisms,biofilm deposits,effective in removing biofilm deposits and controlling the number of viable organisms
same,log reduction at 100 ppm,[2]; [5],3
same,log reduction at 100 ppm,[2]; [6],4
same,concentration required to achieve the same level of effectiveness as OPA,[2],Significantly higher concentrations
"COc1cccc(C=O)c1O [OVA, ortho-vanillin]",MIC,K. pneum.,0.25 mMole %
same,MIC,C. albic.,0.25 mMole %
same,log reduction at 50 ppm,[3]; [5],0
same,log reduction at 50 ppm,[3]; [6],0
same,log reduction at 100 ppm,[3]; [5],0
same,log reduction at 100 ppm,[3]; [6],0
same,log reduction at 200 ppm,[3]; [5],0.3
same,log reduction at 200 ppm,[3]; [6],0.3
same,MIC,S. aureus,0.5 mMole %
same,MIC,P. vulg.,0.25 mMole %
same,MIC,P. aerug.,0.5 mMole %
"O=Cc1ccccc1O [SA, salicylaldehyde]",MIC,K. pneum.,0.25 mMole %
same,MIC,C. albic.,0.25 mMole %
same,log reduction at 50 ppm,[3]; [5],0
same,log reduction at 50 ppm,[3]; [6],0
same,log reduction at 100 ppm,[3]; [5],0
same,log reduction at 100 ppm,[3]; [6],0
same,log reduction at 200 ppm,[3]; [5],0.2
same,log reduction at 200 ppm,[3]; [6],0.2
same,MIC,S. aureus,0.25 mMole %
same,MIC,P. vulg.,0.25 mMole %
same,MIC,P. aerug.,0.25 mMole %
"O=Cc1cccc(O)c1O [DHB, 2,3-dihydroxybenzaldehyde]",MIC,K. pneum.,0.05 mMole %
same,MIC,C. albic.,< 0.025 mMole %
same,log reduction at 50 ppm,[3]; [5],0
same,log reduction at 50 ppm,[3]; [6],0
same,log reduction at 100 ppm,[3]; [5],0.5
same,log reduction at 100 ppm,[3]; [6],0
same,log reduction at 200 ppm,[3]; [5],1.1
same,log reduction at 200 ppm,[3]; [6],0.2
same,MIC,S. aureus,0.25 mMole %
same,MIC,P. vulg.,0.25 mMole %
same,MIC,P. aerug.,0.25 mMole %
"O=Cc1ccccc1C(=O)O [CB, 2-carboxybenzaldehyde]",MIC,K. pneum.,2.5 mMole %
same,MIC,C. albic.,1.0 mMole %
same,log reduction at 50 ppm,[3]; [5],0
same,log reduction at 50 ppm,[3]; [6],0
same,log reduction at 100 ppm,[3]; [5],0
same,log reduction at 100 ppm,[3]; [6],0.1
same,log reduction at 200 ppm,[3]; [5],0.6
same,log reduction at 200 ppm,[3]; [6],0.5
same,MIC,S. aureus,0.5 mMole %
same,MIC,P. vulg.,1.0 mMole %
same,MIC,P. aerug.,2.5 mMole %
"C=O [FA, formaldehyde]",log reduction at 250 ppm,[1]; [7],2
same,log reduction at 500 ppm,[1]; [7],2.6
same,log reduction at 1000 ppm,[1]; [7],5.1
same,log reduction at 250 ppm,[1]; [8],5.1
same,log reduction at 500 ppm,[1]; [8],5.1
same,log reduction at 1000 ppm,[1]; [8],5.1
same,log reduction at 100 ppm,[2]; [5],< 2
same,log reduction at 100 ppm,[2]; [6],< 2
same,log reduction at 250 ppm,[2]; [5],< 2
same,log reduction at 250 ppm,[2]; [6],3
same,concentration required to achieve the same level of effectiveness as OPA,[2],Significantly higher concentrations
same,performance in tests,sessile microorganisms,performed well in one test but poorly in another test
"O=Cc1ccccc1C=O [OPA, ortho-phthalaldehyde]",MIC,K. pneum.,0.25 mMole %
same,MIC,C. albic.,0.25 mMole %
same,log reduction at 5 ppm,[1]; [5],0.8
same,log reduction at 5 ppm,[1]; [6],5.1
same,log reduction at 10 ppm,[1]; [5],1.4
same,log reduction at 10 ppm,[1]; [6],5.1
same,log reduction at 25 ppm,[1]; [5],5.1
same,log reduction at 25 ppm,[1]; [6],5.1
same,effectiveness versus glutaraldehyde and formaldehyde,"[1]; aerobic biofilm, Example 1",outperformed both glutaraldehyde and formaldehyde
same,log reduction at 10 ppm,[2]; [5],3
same,log reduction at 10 ppm,[2]; [6],4
same,log reduction at 25 ppm,[2]; [5],3
same,log reduction at 25 ppm,[2]; [6],4
same,log reduction at 50 ppm,[2]; [5],4
same,log reduction at 50 ppm,[2]; [6],4
same,MBC,"[2]; Example 3, read-out: OPA concentrations at which a complete kill of sessile microorganisms occurred (as low as)",10 to 50 µg/mL
same,MBC,"[2]; within 4 hours, read-out: concentration that completely kills all sessile anaerobic organisms in the biofilm",10 µg/mL
same,log reduction at 50 ppm,[3]; [5],2.9
same,log reduction at 50 ppm,[3]; [6],7.4
same,log reduction at 100 ppm,[3]; [5],3.4
same,log reduction at 100 ppm,[3]; [6],7.4
same,log reduction at 200 ppm,[3]; [5],6
same,log reduction at 200 ppm,[3]; [6],7.4
same,effectiveness against sessile microorganisms in biofilms versus other aldehydes,[3]; other aldehydes at four times the concentration of OPA,surprising effectiveness
same,log reduction at 100 ppm,"[4]; 1 hr contact, 4 represents complete kill, read-out: log reduction after 1 hr",0
same,log reduction at 100 ppm,"[4]; 4 hr contact, 4 represents complete kill, read-out: log reduction after 4 hr",0
same,log reduction at 500 ppm,"[4]; 500 ppm, 1 hr contact, 4 represents complete kill, read-out: log reduction after 1 hr",2 to 3
same,log reduction at 250 ppm,[4]; [7],1
same,log reduction at 250 ppm,[4]; [8],1 to 2
same,MBC,"[4]; Example 4, read-out: concentration for complete kill of planktonic SRB (not achieved at concentrations as high as)",> 500 µg/mL
same,solubility,Solubility in water,~50 mg/mL
same,MIC,S. aureus,0.25 mMole %
same,MIC,P. vulg.,0.25 mMole %
same,MIC,P. aerug.,0.25 mMole %
